Here are results for 23 compounds from ChEMBL document CHEMBL1141497, “Discovery of novel FMS kinase inhibitors as anti-inflammatory agents” (Bioorg Med Chem Lett, 2008).

The target of series [1] is Macrophage colony-stimulating factor 1 receptor (Homo sapiens, UniProt P07333). Briefly: biochemical.
In a further series the test system is Macrophage. Kind of series: Inhibition of FMS-induced proliferation of bone marrow derived human macrophages. Format: functional, cell-based.
A short description of series [2]: Half life in CD1 mouse at 2 mg/kg, iv and 10 mg/kg, po. The series is classed as ADME, organism-based. The following applies: in vivo.
Series [3] is described as follows: Cmax in CD1 mouse at 2 mg/kg, iv and 10 mg/kg, po. Format: ADME, organism-based. The settings on record: in vivo.
The nature of series [4]: Volume of distribution in CD1 mouse at 2 mg/kg, iv and 10 mg/kg, po. The following applies: in vivo, read-out: Vdss. Format: ADME, organism-based.
Series [5] in a line: Oral bioavailability in CD1 mouse at 10 mg/kg. The series is classed as ADME, organism-based. The settings on record: in vivo.
Series [6] concerns the target Mast/stem cell growth factor receptor Kit (Homo sapiens, UniProt P10721). Briefly: Inhibition of Kit after 30 mins by fluorescence polarization. On the technique in general: Polarisation of emitted light reports the rotation of a fluorescent probe.
For series [7], the target named is High affinity nerve growth factor receptor (Homo sapiens, UniProt P04629). Kind of series: Inhibition of TrkA after 27 mins by fluorescence polarization.
High affinity nerve growth factor receptor, sequence (P04629 whole entry): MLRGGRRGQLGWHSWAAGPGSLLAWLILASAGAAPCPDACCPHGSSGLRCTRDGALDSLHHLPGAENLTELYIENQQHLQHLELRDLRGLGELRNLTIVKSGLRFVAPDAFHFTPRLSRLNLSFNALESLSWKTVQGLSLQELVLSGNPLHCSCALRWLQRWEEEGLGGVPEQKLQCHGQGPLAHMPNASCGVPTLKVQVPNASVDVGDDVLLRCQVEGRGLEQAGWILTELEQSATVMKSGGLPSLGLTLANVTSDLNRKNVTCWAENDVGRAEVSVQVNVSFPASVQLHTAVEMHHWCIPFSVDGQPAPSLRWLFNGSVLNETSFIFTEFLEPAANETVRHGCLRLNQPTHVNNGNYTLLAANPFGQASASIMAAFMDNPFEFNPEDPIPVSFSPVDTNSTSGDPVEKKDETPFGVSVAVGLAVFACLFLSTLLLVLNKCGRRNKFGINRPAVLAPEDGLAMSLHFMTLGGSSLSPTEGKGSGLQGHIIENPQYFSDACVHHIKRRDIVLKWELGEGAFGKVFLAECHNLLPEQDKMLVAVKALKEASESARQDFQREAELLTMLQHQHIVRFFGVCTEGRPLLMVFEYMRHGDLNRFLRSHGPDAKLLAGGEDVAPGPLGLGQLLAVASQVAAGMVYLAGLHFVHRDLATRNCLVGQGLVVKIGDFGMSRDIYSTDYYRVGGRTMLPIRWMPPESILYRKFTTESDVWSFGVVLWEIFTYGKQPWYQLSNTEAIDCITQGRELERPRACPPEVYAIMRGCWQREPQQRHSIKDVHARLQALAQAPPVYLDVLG
The subject of series [8] is Mus musculus. Kind of series: Reduction in progression of collagen-induced arthritis scores in mouse CIA model at 30 mg/kg, po bid. The series is classed as functional. Further details: scale not given: the % may be the effect or the level left.
For series [9], the system named is Mus musculus. Kind of series: Reduction in progression of collagen-induced arthritis scores in mouse CIA model at 5 mg/kg, po bid. Format: functional. Further details: scale not given: the % may be the effect or the level left.
The species entered for series [10] is Mus musculus. Kind of series: Reduction in pannus formation in mouse CIA model BID for 14 days. The series is classed as functional. Further details: scale not given: the % may be the effect or the level left.
The species named for series [11] is Mus musculus. Briefly: Reduction in bone destruction in mouse CIA model BID for 14 days. The series is classed as functional. Further details: scale not given: the % may be the effect or the level left.

As a reminder, the IC50 is the concentration at which inhibition is half-maximal. The term half-life denotes the time in which the quantity being followed falls by half. As a reminder, the Cmax is the highest concentration seen after dosing. Broadly, the bioavailability is dose-corrected exposure relative to a reference, in per cent.

The structures appear in SMILES notation.

Macrophage colony-stimulating factor 1 receptor, sequence (P07333 whole entry): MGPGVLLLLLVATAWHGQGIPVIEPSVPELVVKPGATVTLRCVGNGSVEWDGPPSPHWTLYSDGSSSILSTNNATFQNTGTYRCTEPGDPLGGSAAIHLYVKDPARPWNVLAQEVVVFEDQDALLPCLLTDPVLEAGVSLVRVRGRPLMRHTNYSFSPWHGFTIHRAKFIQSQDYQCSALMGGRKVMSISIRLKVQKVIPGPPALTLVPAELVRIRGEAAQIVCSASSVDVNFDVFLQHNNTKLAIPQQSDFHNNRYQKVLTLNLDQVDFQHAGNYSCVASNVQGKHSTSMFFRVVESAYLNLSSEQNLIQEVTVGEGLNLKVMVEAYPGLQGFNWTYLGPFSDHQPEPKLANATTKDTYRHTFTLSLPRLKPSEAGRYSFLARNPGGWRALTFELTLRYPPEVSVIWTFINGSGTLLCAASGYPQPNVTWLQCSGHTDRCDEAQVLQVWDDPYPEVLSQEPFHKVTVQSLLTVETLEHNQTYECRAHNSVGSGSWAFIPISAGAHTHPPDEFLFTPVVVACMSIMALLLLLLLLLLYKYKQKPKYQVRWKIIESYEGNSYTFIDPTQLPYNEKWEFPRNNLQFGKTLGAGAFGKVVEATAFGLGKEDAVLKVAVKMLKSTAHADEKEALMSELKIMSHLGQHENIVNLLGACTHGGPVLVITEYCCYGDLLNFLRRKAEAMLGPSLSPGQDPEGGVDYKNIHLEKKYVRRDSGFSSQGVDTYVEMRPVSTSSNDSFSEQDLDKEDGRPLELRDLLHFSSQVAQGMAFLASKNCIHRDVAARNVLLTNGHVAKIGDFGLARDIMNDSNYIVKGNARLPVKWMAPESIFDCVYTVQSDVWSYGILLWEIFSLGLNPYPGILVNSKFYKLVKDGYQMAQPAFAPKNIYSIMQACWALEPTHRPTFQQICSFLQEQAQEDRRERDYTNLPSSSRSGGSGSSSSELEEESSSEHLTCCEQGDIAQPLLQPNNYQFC
Mast/stem cell growth factor receptor Kit, sequence (P10721 whole entry): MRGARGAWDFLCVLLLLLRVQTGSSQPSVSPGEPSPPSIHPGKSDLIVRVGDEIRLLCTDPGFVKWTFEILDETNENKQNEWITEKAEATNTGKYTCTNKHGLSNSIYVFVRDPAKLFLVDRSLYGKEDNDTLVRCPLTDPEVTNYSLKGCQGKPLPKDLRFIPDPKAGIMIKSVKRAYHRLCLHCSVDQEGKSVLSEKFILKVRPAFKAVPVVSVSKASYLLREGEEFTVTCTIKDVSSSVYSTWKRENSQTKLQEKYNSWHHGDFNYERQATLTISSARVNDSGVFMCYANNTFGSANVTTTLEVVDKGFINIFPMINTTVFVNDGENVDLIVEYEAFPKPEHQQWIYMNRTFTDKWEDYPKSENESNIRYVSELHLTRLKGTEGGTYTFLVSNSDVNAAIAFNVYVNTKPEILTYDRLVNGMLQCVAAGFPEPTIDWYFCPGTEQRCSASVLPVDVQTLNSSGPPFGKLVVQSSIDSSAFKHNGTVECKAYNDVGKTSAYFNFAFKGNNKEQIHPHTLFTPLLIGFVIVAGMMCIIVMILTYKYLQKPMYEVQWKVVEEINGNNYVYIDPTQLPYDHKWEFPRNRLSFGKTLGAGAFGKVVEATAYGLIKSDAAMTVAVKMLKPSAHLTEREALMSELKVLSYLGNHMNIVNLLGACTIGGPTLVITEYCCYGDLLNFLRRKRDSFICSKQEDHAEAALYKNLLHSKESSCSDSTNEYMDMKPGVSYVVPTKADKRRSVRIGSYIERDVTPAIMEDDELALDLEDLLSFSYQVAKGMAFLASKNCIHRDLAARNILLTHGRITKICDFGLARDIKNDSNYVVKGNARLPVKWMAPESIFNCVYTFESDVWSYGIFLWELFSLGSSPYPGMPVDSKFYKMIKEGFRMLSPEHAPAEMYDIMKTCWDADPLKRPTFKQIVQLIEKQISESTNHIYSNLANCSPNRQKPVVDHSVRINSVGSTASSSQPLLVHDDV

As to `CC1CCN(c2cc(N3CCN(C)CC3)cnc2NC(=O)c2ccc(C#N)o2)CC1`, it took 720 nM to reach half-maximal inhibition in series [1] (IC50).
Take `CC1CCN(c2cc(N3CCN(C)CC3)ccc2NC(=O)c2ccc(C#N)o2)CC1`: half-maximal inhibition with Macrophage (IC50) required 2 nM. In series [2], the half-life is 1.63 h. Moreover, the peak level in series [3] (Cmax) was 454 ng/mL. The Vd in series [4] came to 11.4 L/kg. In addition, in [5], the bioavailability is 39%.
Take `CN1CCN(c2ccc(NC(=O)c3ccc(C#N)o3)c(N3CCCC(F)C3)c2)CC1` (configuration not stated): the midpoint of inhibition in series [1], the IC50, lay at 6.3 nM.
Regarding `CN1CCN(c2ccc(NC(=O)c3ccc(C#N)o3)c(N3CCCCC3=O)c2)CC1`, the results for the IC50 (in the series on Macrophage; in series [1]) were greater than 10000 nM and greater than 60 nM, respectively.
Consider `N#Cc1ccc(C(=O)Nc2ccc(N3CCS(=O)(=O)CC3)cc2N2CCCCC2)o1`, for which, in [1], the midpoint of inhibition, the IC50, lay at 0.7 nM.
Turning to `CN1CCN(c2ccc(NC(=O)c3ccc(C#N)o3)c(N3CCOCC3)c2)CC1`, the values for the half-inhibitory concentration (IC50) (in the series on Macrophage; in [1]) were 2800 nM and 80 nM, respectively.
`CC1CCN(c2nc(N3CCN(C)CC3)ccc2NC(=O)c2ccc(C#N)o2)CC1` yielded an IC50 in [1] of 10 nM.
Still for that read-out and setting: the figure for `Cc1cnn(-c2ccc(NC(=O)c3ccc(C#N)o3)c(N3CCCCC3)c2)c1` is 64 nM; for `N#Cc1ccc(C(=O)Nc2ccc(-n3ccnc3)cc2N2CCCCC2)o1` it is 3 nM; for `CCOc1ccc(NC(=O)c2ccc(C#N)o2)c(N2CCCCC2)c1` it is 21 nM.
Same read-out and setting: the figure for `CC1CCN(c2cc(N3CCOCC3)ccc2NC(=O)c2ccc(C#N)o2)CC1` is 11 nM; for `CN1CCN(C(=O)N(C)c2ccc(NC(=O)c3ccc(C#N)o3)c(N3CCCCC3)c2)CC1` it is 83 nM.
`CC1CCN(c2cc(N3CCN(C)CC3)ccc2NC(=O)c2cc(C#N)c[nH]2)CC1` displayed a half-life in series [2] of 4.07 h. Also, in [3], the maximum concentration (Cmax) came out at 853 ng/mL. The Vd in series [4] was found to be 5.63 L/kg. For the same compound, in series [5], the bioavailability is 45%. Also, the IC50 in series [6] turned out to be 3.5 nM; in [7], 11 nM. Also, the Activity in the series with Mus musculus [8] was 65%; in the series on Mus musculus [9], 35%; in the series filed under Mus musculus [10], 80%; in the series filed under Mus musculus [11], 80%.
On to `CC1CCN(c2cc(N3CCNCC3)ccc2NC(=O)c2cc(C#N)c[nH]2)CC1`, for which, in series [1], the IC50 was 1 nM.
The compound `CC(=O)N1CCN(c2ccc(NC(=O)c3cc(C#N)c[nH]3)c(N3CCC(C)CC3)c2)CC1` displayed an IC50 in series [1] of 0.7 nM.
Same read-out and setting: with `CC1CCN(c2cc(N3CCN(S(C)(=O)=O)CC3)ccc2NC(=O)c2ccc(C#N)o2)CC1` the figure was 0.9 nM; with `N#Cc1ccc(C(=O)Nc2ccc(N3CCCCC3)cc2N2CCCCC2)o1`, 17 nM; with `CCN(C)CCCc1ccc(NC(=O)c2ccc(C#N)o2)c(N2CCCCC2)c1`, 52 nM.
On to `CN1CCN(c2ccc(NC(=O)c3ccc(C#N)o3)c(N3CCCCC3)c2)CC1`, for which, in the series on Macrophage, inhibition was half-maximal at 5 nM (IC50). The half-life in series [2] amounted to 1.03 h. Also, in series [3], the peak level (Cmax) was 386 ng/mL. Further, in series [4], the Vd amounted to 7.97 L/kg. The bioavailability in [5] was determined as 32%.
`CN1CCN(c2ccc(NC(=O)c3cc(C#N)c[nH]3)c(N3CCCCC3)c2)CC1` showed an IC50 with Macrophage of 2 nM.
`CN(c1ccc(NC(=O)c2ccc(C#N)o2)c(N2CCCCC2)c1)S(C)(=O)=O` registered an IC50 in [1] of 25 nM.
The same measure, in the same setting: with `CS(=O)(=O)Nc1ccc(NC(=O)c2ccc(C#N)o2)c(N2CCCCC2)c1` the figure was 71 nM.
On the same count and under the same terms, the figure for `N#Cc1ccc(C(=O)Nc2ccc(F)cc2N2CCCCC2)o1` is 63 nM.
